In patent publication US20230002359A1, “PESTICIDALLY ACTIVE FUSED BICYCLIC HETEROAROMATIC COMPOUNDS” (priority 2019, published 2023):

Columns and labels:
[1] = tested on: Diabrotica Balteata (Corn Root Worm); experiment: Example B1: Diabrotica balteata (corn root worm), maize sprouts sprayed, L2 larvae; assay type: in vivo; details: 96 h, application rate of 200 ppm, 4 days after infestation, L2 larvae, read-out: control in at least one of the two categories (mortality or growth inhibition)
Procedure, shortened: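 Read-out is mortality plus growth inhibition relative to untreated controls, assessed 4 days after infestation. Sprouts resting on agar are sprayed with aqueous solutions derived from 10′000 ppm DMSO stocks and left to dry before L2 larvae (6 to 10 per well) are added.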

[2] = tested on: Euschistus heros (Neotropical Brown Stink Bug); experiment: Example B2: Euschistus heros (neotropical brown stink bug), soybean leaves sprayed, N2 nymphs; assay type: in vivo; details: 120 h, application rate of 200 ppm, 5 days after infestation, N2 nymphs, read-out: control in at least one of the two categories (mortality or growth inhibition)
Description: Soybean leaves on agar in 24-well microtiter plates were sprayed with aqueous test solutions prepared from 10′000 ppm DMSO stock solutions. After drying the leaves were infested with N2 nymphs. The samples were assessed for mortality and growth inhibition in comparison to untreated samples 5 days after infestation.

[3] = tested on: Chilo suppressalis (Striped Rice Stemborer); experiment: Example B3: Chilo suppressalis (striped rice stemborer), artificial diet, L2 larvae; assay type: in vivo; details: 144 h, application rate of 200 ppm, 6 days after infestation, L2 larvae, read-out: control in at least one of the three categories (mortality, anti-feedant effect, or growth inhibition)
Procedure, shortened: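 Diet-incorporation surface assay: aqueous dilutions of 10'000 ppm DMSO stock applied to artificial diet, dried; 6-8 L2 larvae/well; read day 6 post-infestation for mortality, antifeedant effect, growth inhibition vs untreated. Active if any category above untreated.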

[4] = tested on: Plutella xylostella (Diamond Back Moth); experiment: Example B4: Plutella xylostella (diamond back moth), artificial diet, eggs, 24-well; assay type: in vivo; details: 192 h, application rate of 200 ppm, 8 days after infestation, eggs, read-out: control in at least one of the two categories (mortality or growth inhibition)
Description: 24-well microtiter plates with artificial diet were treated with aqueous test solutions prepared from 10′000 ppm DMSO stock solutions by pipetting. After drying, Plutella eggs were pipetted through a plastic stencil onto a gel blotting paper and the plate was closed with it. The samples were assessed for mortality and growth inhibition in comparison to untreated samples 8 days after infestation.

[5] = tested on: Myzus persicae (Green Peach Aphid); experiment: Example B5: Myzus persicae (green peach aphid) feeding/contact activity, sunflower leaf discs; assay type: in vivo; details: foliar, 144 h, application rate of 200 ppm, 6 days after infestation
Description: Sunflower leaf discs were placed onto agar in a 24-well microtiter plate and sprayed with aqueous test solutions prepared from 10′000 ppm DMSO stock solutions. After drying, the leaf discs were infested with an aphid population of mixed ages. The samples were assessed for mortality 6 days after infestation.

[6] = tested on: Myzus persicae (Green Peach Aphid); experiment: Example B6: Myzus persicae (green peach aphid) intrinsic activity, sucrose solution; assay type: in vivo; details: 120 h, test rate of 12 ppm, 5 days after infestation, intrinsic activity, read-out: mortality
Procedure, shortened: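 Compounds from 10′000 ppm DMSO stocks were mixed into sucrose solution in 24-well plates sealed with Parafilm. Aphid-infested pea seedlings were set on the membrane and the plate inverted so aphids fed through it. Mortality scored 5 days after infestation.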

[7] = tested on: Spodoptera littoralis (Egyptian Cotton Leaf Worm); experiment: Example B7: Spodoptera littoralis (Egyptian cotton leaf worm), cotton leaf discs sprayed, L1 larvae; assay type: in vivo; details: foliar, 72 h, application rate of 200 ppm, 3 days after infestation, L1 larvae, read-out: control in at least one of the three categories (mortality, anti-feedant effect, or growth inhibition)
Procedure, shortened: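 Five L1 larvae per sprayed, dried cotton leaf disc on agar. Activity is counted when mortality, anti-feedant effect or growth inhibition exceeds the untreated sample at day 3.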

Compound | melting point [°C] | percent control (mortality or growth inhibition) at 200 ppm [1] [%] | percent control (mortality or growth inhibition) at 200 ppm [2] [%] | percent control (mortality, anti-feedant effect or growth inhibition) at 200 ppm [3] [%] | percent control (mortality or growth inhibition) at 200 ppm [4] [%] | mortality at 200 ppm [5] [%] | mortality at 12 ppm [6] [%] | percent control (mortality, anti-feedant effect or growth inhibition) at 200 ppm [7] [%]
CC(Nc1c(C#N)cnc2c(C(F)(F)F)cc(C(F)(F)F)cc12)c1ncnn1-c1ccc(C#N)cn1 (stereo not shown) | 261 to 263 | – | – | – | – | – | – | –
CC(Nc1ncnc2c(Cl)c(F)c(Cl)cc12)c1ncnn1-c1ccc(C#N)cn1 (stereo not shown) | 215 to 225 | – | – | – | – | – | – | –
CC(Nc1ncnc2c(C(F)(F)F)cc(Br)cc12)c1ncnn1-c1ccc(F)cn1 (stereo not shown) | 282 to 284 | – | – | – | – | – | – | –
CC(c1ncnn1-c1ccc(C#N)cn1)N(C)c1ncnc2c(Cl)c(F)c(Cl)cc12 (stereo not shown) | 145 to 155 | – | – | – | – | – | – | –
C[C@H](c1ncnn1-c1ccc(C#N)cn1)N(C)c1ncnc2c(C(F)(F)F)cc(Br)cc12 [P.203, 6-[5-[(1R)-1-[[6-bromo-8-(trifluoromethyl)quinazolin-4-yl]-methyl-amino]ethyl]-1,2,4-triazol-1-yl]pyridine-3-carbonitrile] | – | ≥ 80 | ≥ 80 | ≥ 80 | ≥ 80 | ≥ 80 | ≥ 80 | ≥ 80
CCN(c1ncnc2c(C(F)(F)F)cc(C(F)(F)F)cc12)C(C)c1ncnn1-c1ccc(C#N)cn1 (stereo not shown) [P.6, 6-[5-[1-[[6,8-bis(trifluoromethyl)quina-zolin-4-yl]-ethyl-amino]ethyl]-1,2,4-triazol-1-yl]pyridine-3-carbonitrile] | – | ≥ 80 | ≥ 80 | ≥ 80 | ≥ 80 | ≥ 80 | ≥ 80 | ≥ 80
CCN(c1ncnc2c(C(F)(F)F)cc(C(F)(F)F)cc12)[C@@H](C)c1ncnn1-c1ccc(C#N)cn1 [P.168, 6-[5-[(1S)-1-[[6,8-bis(trifluoromethyl)quina-zolin-4-yl]-ethyl-amino]ethyl]-1,2,4-triazol-1-yl]pyridine-3-carbonitrile] | – | ≥ 80 | ≥ 80 | ≥ 80 | ≥ 80 | ≥ 80 | ≥ 80 | ≥ 80
CC(c1ncnn1-c1ccc(C#N)cn1)N(C)c1ncnc2c(C(F)(F)F)cc(C(F)(F)F)cc12 (stereo not shown) [P.28, 6-[5-[1-[[6,8-bis(trifluoromethyl)quina-zolin-4-yl]-methyl-amino]ethyl]-1,2,4-triazol-1-yl]pyridine-3-carbonitrile] | – | ≥ 80 | ≥ 80 | ≥ 80 | ≥ 80 | ≥ 80 | ≥ 80 | ≥ 80
C[C@@H](c1ncnn1-c1ncccn1)N(CC1CC1)c1ncnc2c(C(F)(F)F)cc(Cl)cc12 [P.265, 6-chloro-N-(cyclopropylmethyl)-N-[(1S)-1-(2-pyrimidin-2-yl-1,2,4-triazol-3-yl)ethyl]-8-(trifluoromethyl)quinazolin-4-amine] | – | ≥ 80 | ≥ 80 | ≥ 80 | ≥ 80 | ≥ 80 | ≥ 80 | ≥ 80
C[C@@H](c1ncnn1-c1ncccn1)N(C)c1ncnc2c(C(F)(F)C3CC3)cc(C(F)(F)F)cc12 [P.201, 8-[cyclopropyl(difluoro)meth-yl]-N-methyl-N-[(1S)-1-(2-pyrimidin-2-yl-1,2,4-triazol-3-yl)ethyl]-6-(trifluoromethyl)quinazolin-4-amine] | – | ≥ 80 | ≥ 80 | ≥ 80 | ≥ 80 | ≥ 80 | ≥ 80 | ≥ 80
C[C@@H](c1ncnn1-c1ccc(C#N)cn1)N(C)c1ncnc2c(SC(F)(F)F)cc(C(F)(F)F)cc12 [P.215, 6-[5-[(1S)-1-[methyl-[6-(trifluoromethyl)-8-(trifluoromethylsulfanyl)quinazolin-4-yl]amino]ethyl]-1,2,4-triazol-1-yl]pyridine-3-carbonitrile] | – | ≥ 80 | ≥ 80 | ≥ 80 | ≥ 80 | ≥ 80 | ≥ 80 | ≥ 80
C[C@@H](c1ncnn1-c1ncccn1)N(C)c1ncnc2c(C(F)(F)F)cc(C(F)(F)F)cc12 [P.26, N-methyl-N-[(1S)-1-(2-pyrimidin-2-yl-1,2,4-triazol-3-yl)ethyl]-6,8-bis(trifluoromethyl)quina-zolin-4-amine] | – | ≥ 80 | ≥ 80 | ≥ 80 | ≥ 80 | ≥ 80 | ≥ 80 | ≥ 80
C[C@@H](c1ncnn1-c1ccc(C#N)cn1)N(CC1CC1)c1ncnc2c(Cl)cc(C(F)(F)F)cc12 [P.271, 6-[5-[(1S)-1-[[8-chloro-6-(trifluoromethyl)quinazolin-4-yl]-(cyclopropylmethyl)amino]ethyl]-1,2,4-triazol-1-yl]pyridine-3-carbonitrile] | – | ≥ 80 | ≥ 80 | ≥ 80 | ≥ 80 | ≥ 80 | ≥ 80 | ≥ 80

Now from value to compound, other results behind:

melting point [°C] | Compound | percent control (mortality or growth inhibition) at 200 ppm [1] [%] | percent control (mortality or growth inhibition) at 200 ppm [2] [%] | percent control (mortality, anti-feedant effect or growth inhibition) at 200 ppm [3] [%] | percent control (mortality or growth inhibition) at 200 ppm [4] [%] | mortality at 200 ppm [5] [%] | mortality at 12 ppm [6] [%] | percent control (mortality, anti-feedant effect or growth inhibition) at 200 ppm [7] [%]
84 to 86 | C[C@@H](c1ncnn1-c1ncccn1)N(C)c1c(C#N)cnc2c(C(F)(F)F)cc(C(F)(F)F)cc12 | – | – | – | – | – | – | –
102 to 104 | CC(c1ncnn1-c1ccc(OC(F)F)cn1)N(C)c1ncnc2c(Cl)cc(C(F)(F)F)cc12 (stereo not shown) | – | – | – | – | – | – | –
240 to 242 | CC(Nc1ncnc2c(Cl)cc(C(F)(F)F)cc12)c1ncnn1-c1ccc(OC(F)F)cn1 (stereo not shown) | – | – | – | – | – | – | –
142 to 144 | CC(c1nccnc1-c1ccc(Br)cn1)N(C)c1ncnc2c(Cl)cc(C(F)(F)F)cc12 (stereo not shown) | – | – | – | – | – | – | –
81 to 83 | CC(c1ncnn1-c1ncccn1)N(CC1CC1)c1nc(Cl)nc2c(Cl)cc(C(F)(F)F)cc12 (stereo not shown) | – | – | – | – | – | – | –
254 to 256 | CC(c1nccnc1-c1ccc(C#N)cn1)N(CC1CC1)c1ncnc2c(C(F)(F)F)cc(Cl)cc12 (stereo not shown) | – | – | – | – | – | – | –
280 to 282 | CC(Nc1ncnc2c(Br)cc(C(F)(F)F)cc12)c1ncnn1-c1ccc(Br)cn1 (stereo not shown) | – | – | – | – | – | – | –
183 to 185 | C[C@@H](c1ncnn1-c1ccc(C(N)=O)cn1)N(C)c1ncnc2c(C(F)(F)F)cc(C(F)(F)F)cc12 | – | – | – | – | – | – | –
223 to 225 | C[C@@H](c1ncnn1-c1ccc(C(N)=NO)cn1)N(C)c1ncnc2c(C(F)(F)F)cc(Cl)cc12 | – | – | – | – | – | – | –
77 to 79 | C[C@@H](c1ncnn1-c1ccc(-c2nnn[nH]2)cn1)N(C)c1ncnc2c(C(F)(F)F)cc(Cl)cc12 | – | – | – | – | – | – | –
87 to 89 | CC(c1ncnn1-c1ncccn1)N(CC1CC1)c1nc(Cl)nc2c(Br)cc(C(F)(F)F)cc12 (stereo not shown) | – | – | – | – | – | – | –
75 to 77 | C[C@@H](c1ncnn1-c1ccc(-c2noc(C(F)(F)F)n2)cn1)N(C)c1ncnc2c(C(F)(F)F)cc(Cl)cc12 | – | – | – | – | – | – | –
203 to 205 | C[C@H](Nc1c(C#N)cnc2c(C(F)(F)F)cc(C(F)(F)F)cc12)c1ncnn1-c1ncccn1 | – | – | – | – | – | – | –
142 to 144 | C[C@@H](c1ncnn1-c1ccc(-c2nccs2)cn1)N(C)c1ncnc2c(C(F)(F)F)cc(Cl)cc12 | – | – | – | – | – | – | –
182 to 184 | C[C@@H](c1ncnn1-c1ncccn1)N(C)c1ncnc2c(C(F)(F)F)cc(C3CC3)cc12 | – | – | – | – | – | – | –
